Measurements reported in ChEMBL document CHEMBL5325400 (Eur J Med Chem, 2023).

Assays:
Format in all cases: functional, cell-based
[1] = test system: HeLa; assay: Antiproliferative activity against human HeLa cells assessed as inhibition of cell growth measured after 48 hrs by MTT assay
[2] = test system: MDA-MB-231; assay: Antiproliferative activity against human MDA-MB-231 cells assessed as inhibition of cell growth measured after 48 hrs by MTT assay; conditions: MDA-MB-231, 48 h
[3] = test system: SK-OV-3; assay: Antiproliferative activity against human SK-OV-3 cells assessed as inhibition of cell growth measured after 48 hrs by MTT assay; conditions: SK-OV-3, 48 h
[4] = test system: A549; assay: Antiproliferative activity against human A549 cells assessed as inhibition of cell growth measured after 48 hrs by MTT assay; conditions: A549, 48 h
[5] = test system: HepG2; assay: Antiproliferative activity against human HepG2 cells assessed as inhibition of cell growth measured after 48 hrs by MTT assay; conditions: HepG2, 48 h
[6] = test system: B16-F10; assay: Antiproliferative activity against mouse B16-F10 cells assessed as inhibition of cell growth measured after 48 hrs by MTT assay; conditions: B16-F10, 48 h

CCOc1cccc(Nc2cc(Nc3cccc(NC(=O)C4CC4)c3)ncn2)c1
IC50 [1]: 613 nM
IC50 [2]: 1.9 nM
IC50 [3]: 17.4 nM
IC50 [4]: 173 nM
IC50 [5]: 128 nM
IC50 [6]: 20.7 nM

COc1cccc(Nc2cc(Nc3cccc(C(=O)NC4CCCCC4)c3)ncn2)c1
IC50 [1]: > 1000 nM
IC50 [2]: > 1000 nM
IC50 [3]: > 1000 nM
IC50 [4]: > 1000 nM
IC50 [5]: > 1000 nM
IC50 [6]: > 1000 nM

COc1cccc(Nc2nc(Nc3cccc(NC(=O)C4CC4)c3)nc3ccsc23)c1
IC50 [1]: > 1000 nM
IC50 [2]: 610 nM
IC50 [3]: > 1000 nM
IC50 [4]: > 1000 nM
IC50 [5]: > 1000 nM
IC50 [6]: > 1000 nM

COc1cccc(Nc2nc(Nc3cccc(NC(=O)C4CC4)c3)nc3ccccc23)c1
IC50 [1]: > 1000 nM
IC50 [2]: 122 nM
IC50 [3]: 864 nM
IC50 [4]: > 1000 nM
IC50 [5]: > 1000 nM
IC50 [6]: 172 nM

COc1cccc(Nc2cc(Nc3cccc(NC(=O)C4CCCC4)c3)ncn2)c1
IC50 [1]: 41.5 nM
IC50 [2]: 105 nM
IC50 [3]: 9.6 nM
IC50 [4]: 198 nM
IC50 [5]: 158 nM
IC50 [6]: > 1000 nM

COc1cccc(Nc2cc(Nc3cccc(NC(=O)C(C)C)c3)ncn2)c1
IC50 [1]: > 1000 nM
IC50 [2]: 644 nM
IC50 [3]: 41.1 nM
IC50 [4]: 299 nM
IC50 [5]: > 1000 nM
IC50 [6]: > 1000 nM

COc1ccc(C)c(Nc2cc(Nc3cccc(NC(=O)C4CC4)c3)ncn2)c1
IC50 [1]: 17.9 nM
IC50 [2]: 48.8 nM
IC50 [3]: 56.9 nM
IC50 [4]: 2 nM
IC50 [5]: 35.2 nM
IC50 [6]: 2.3 nM

COc1cccc(Nc2cc(Nc3cccc(OC)c3)ncn2)c1
IC50 [1]: > 1000 nM
IC50 [2]: > 1000 nM
IC50 [3]: > 1000 nM
IC50 [4]: > 1000 nM
IC50 [5]: > 1000 nM
IC50 [6]: > 1000 nM

O=C(Nc1cccc(Nc2nc(Nc3cccc(C(F)(F)F)c3)c3ccccc3n2)c1)C1CC1
IC50 [1]: > 1000 nM
IC50 [2]: > 1000 nM
IC50 [3]: > 1000 nM
IC50 [4]: > 1000 nM
IC50 [5]: > 1000 nM
IC50 [6]: > 1000 nM

O=C(Nc1cccc(Nc2nc(Nc3cccc(C(F)(F)F)c3)nc3ccccc23)c1)C1CC1
IC50 [1]: > 1000 nM
IC50 [2]: > 1000 nM
IC50 [3]: > 1000 nM
IC50 [4]: > 1000 nM
IC50 [5]: > 1000 nM
IC50 [6]: > 1000 nM

COc1cccc(Nc2cc(Nc3cccc(C(=O)NC4CC4)c3)ncn2)c1
IC50 [1]: > 1000 nM
IC50 [2]: > 1000 nM
IC50 [3]: > 1000 nM
IC50 [4]: > 1000 nM
IC50 [5]: > 1000 nM
IC50 [6]: > 1000 nM

O=C(Nc1cccc(Nc2nc(Nc3cccc(C(F)(F)F)c3)c3sccc3n2)c1)C1CC1
IC50 [1]: > 1000 nM
IC50 [2]: > 1000 nM
IC50 [3]: > 1000 nM
IC50 [4]: > 1000 nM
IC50 [5]: > 1000 nM
IC50 [6]: > 1000 nM

COc1cccc(Nc2nc(Nc3cccc(NC(=O)C4CC4)c3)c3ccsc3n2)c1
IC50 [1]: > 1000 nM
IC50 [2]: > 1000 nM
IC50 [3]: > 1000 nM
IC50 [4]: > 1000 nM
IC50 [5]: > 1000 nM
IC50 [6]: > 1000 nM

O=C(Nc1cccc(Nc2cc(N3CCc4ccccc43)ncn2)c1)C1CC1
IC50 [1]: > 1000 nM
IC50 [2]: > 1000 nM
IC50 [3]: > 1000 nM
IC50 [4]: > 1000 nM
IC50 [5]: > 1000 nM
IC50 [6]: > 1000 nM

CCc1cccc(Nc2cc(Nc3cccc(NC(=O)C4CC4)c3)ncn2)c1
IC50 [1]: 3.2 nM
IC50 [2]: 3.1 nM
IC50 [3]: 1.9 nM
IC50 [4]: 23.4 nM
IC50 [5]: 314 nM
IC50 [6]: 46.6 nM

COc1cccc(Oc2cc(Nc3cccc(NC(=O)C4CC4)c3)ncn2)c1
IC50 [1]: 475 nM
IC50 [2]: 155 nM
IC50 [3]: 68.6 nM
IC50 [4]: 68.3 nM
IC50 [5]: 22.8 nM
IC50 [6]: 83.9 nM

COc1cccc(Nc2cc(Nc3cccc(NC(=O)C4CCCCC4)c3)ncn2)c1
IC50 [1]: 52.5 nM
IC50 [2]: > 1000 nM
IC50 [3]: 23.6 nM
IC50 [4]: 83.2 nM
IC50 [5]: 166 nM
IC50 [6]: 315 nM

O=C(Nc1cncc(Nc2cc(Nc3cccc(C(F)(F)F)c3)ncn2)c1)C1CC1
IC50 [1]: > 1000 nM
IC50 [2]: > 1000 nM
IC50 [3]: > 1000 nM
IC50 [4]: > 1000 nM
IC50 [5]: > 1000 nM
IC50 [6]: > 1000 nM

COc1cccc(Nc2cc(Nc3cccc(NC(=O)C4CC4)c3)ncn2)c1F
IC50 [1]: 45.7 nM
IC50 [2]: 31.4 nM
IC50 [3]: 26.8 nM
IC50 [4]: 4.8 nM
IC50 [5]: 313 nM
IC50 [6]: 181 nM

O=C(Nc1cccc(Nc2nc(Nc3cccc(C(F)(F)F)c3)nc3sccc23)c1)C1CC1
IC50 [1]: > 1000 nM
IC50 [2]: > 1000 nM
IC50 [3]: > 1000 nM
IC50 [4]: > 1000 nM
IC50 [5]: > 1000 nM
IC50 [6]: > 1000 nM

COc1cccc(Nc2cc(Nc3cccc(NS(=O)(=O)C4CCCCC4)c3)ncn2)c1
IC50 [1]: > 1000 nM
IC50 [2]: > 1000 nM
IC50 [3]: 286 nM
IC50 [4]: > 1000 nM
IC50 [5]: > 1000 nM
IC50 [6]: > 1000 nM
